Laboratory results reported in patent US4057686A, “Sulphonic acid salts of S-adenosilmethionine” (Bioresearch Limited, priority 1974, dated 1977).

Legend:
[1] = tested on: Parkinsons disease and Parkinsonisms; assay: Clinical tests: Parkinsons disease and Parkinsonisms, with Levodopa; format: in vivo, human; conditions: Levodopa alone
[2] = SAM content / stability on storage in the dry state; format: physicochemical; conditions: 60 days at 45°
Method: The great technical progress achieved by these new salts is their stability with time at 45° in the dry state.
The SAM content of all acids according to the present invention remains unchanged even after […] at 45° in the dry state.

Row | Structure (SMILES) | extent of the Parkinson tremor [1] | decomposition after 60 days [2]
1 | N[C@@H](Cc1ccc(O)c(O)c1)C(=O)O [Levodopa, reference compound] | cannot be modified | 
2 | C[S+](CC[C@H](N)C(=O)O)C[C@H]1O[C@@H](n2cnc3c(N)ncnc32)[C@H](O)[C@@H]1O (some centres unmarked) [chloride] |  | completely decomposed
